“Also recorded” adds a separate entry of the source.
Key:
Assay type in all cases: cell-based
[1] = test system: HeLa cells; assay: microscopy of H2B-GFP labeled HeLa cells (chromosome segregation); conditions: 10 mM of INH1 (FIG. 14A)
Description: FIG. 14A. Micrographic pictures of H2B-GFP labeled HeLa cells treated with DMSO (Mock) or 10 mM of INH1. White arrows indicate lagging chromosomes during M phase.

[2] = test system: Nek2 phosphorylation of Hec1 at S165; assay: Western blot of Hec1 S165 phosphorylation (anti-A439) in treated HeLa cells; conditions: 20 μM, 36 hours
Description: HeLa cells (lane 1) were treated with 0.08% DMSO (lane 2), 20 μM of INH1 (lane 3), INH2 (lane 4) or nocodazole (lane 5) for 36 hours before cells were harvested for immunoblotting with anti-Hec1, mAb9G3, for total Hec1 protein or anti-A439 for the phosphorylated Hec1 at S165 (pHEC1). Nek2 phosphorylation of Hec1 is undetectable in INH1 and INH2 treated cells (lanes 3 and 4).
(§1) We performed a co-immunoprecipitation assay using cells treated with INH1 or INH2 to test whether these compounds disrupt the interaction between Hec1 and Nek2. […] Similarly, we examined whether Nek2 phosphorylation of Hec1 is diminished in the cells treated with these drugs by Western blotting with […], which recognizes specifically the phosphorylated S165 of Hec1.

[3] = test system: HeLa cells; assay: colony formation assay in HeLa cells; conditions: 12 days treatment, INH1 compared with INH2
Description: FIG. 12. Effects of INH1 and INH2 on colony formation of HeLa cells. Exponentially grown cells were seeded at 800 cells per 10-cm dish for 24 h and treated with indicated concentrations of INH1 (MW: 308.41; also referred to herein as IBT 13131; see FIG. 17), INH2 (MW 382.49; also referred to herein as IBT 14664; see FIG. 17), or control (DMSO less than 0.1%) for 12 days. The colonies were fixed and stained with methylene blue and counted. The values were averaged from a triplicate set of experiments, and error bars represent the SEM.
(§2) To determine whether the identified compounds would have the same effect in mammalian cells, we used HeLa cells to test the effects of these compounds in a small-scale experiment. […] These two compounds were named INH1 and INH2 (INH1, MW: 308.41; also referred to herein as IBT 13131; see FIG. 16; INH2, MW 382.49; also referred to herein as IBT 14664; see FIG. 16).

[4] = test system: parental (RB-negative) Saos2 cells; assay: cell killing, trypan blue exclusion, parental Saos2 cells; conditions: 10 μM, 60 hours
Description: (§3) FIG. 15. Differential effect of INH1 in Rb positive and negative osteosarcoma Saos2 cells. Cells grown in log-phase were either untreated or treated with 0.08% DMSO or INH1 at the indicated concentrations for 60 hours. Surviving cells were counted by trypan blue exclusion and expressed as a percentage of the control. SR5 is a Rb reconstituted Saos-2 cell line. The values were the average of a triplicate set of experiments, with error bars representing the SEM.

[5] = test system: HeLa cells; assay: small-scale killing of dividing HeLa cells; conditions: dose of 20 (unit not given)
Text: as §2

[6] = test system: RB-reconstituted Saos2 cells (SR5); assay: cell killing, trypan blue exclusion, RB-reconstituted Saos2 cells; conditions: 10 μM, 60 hours
Description: as §3

[7] = test system: HeLa cells; assay: flow cytometric (FACS) analysis of treated HeLa cells; conditions: 5 or 10 μM, 72 hrs
Description: FIG. 14B. Flow cytometric analysis of INH1 treated HeLa cells. Exponentially grown HeLa cells were seeded at 5×10^5 cells per 10-cm dish for 24 hrs and then treated with DMSO (control) or 5 or 10 μM of INH1 for 72 hrs. Cells were harvested and fixed in 70% ethanol for flow cytometry after staining with propidium iodide. Data represent one of three independent experiments.

[8] = molecular target: T1, interaction between Hec1 and Nek2 (Homo sapiens, UniProt O14777); assay: co-immunoprecipitation of Nek2 with Hec1 from treated HeLa cells; conditions: 10 and 20 μM, 24 hours
T1 construct: endogenous in cells; host or cells: HeLa cells
T1 sequence (O14777 1-642): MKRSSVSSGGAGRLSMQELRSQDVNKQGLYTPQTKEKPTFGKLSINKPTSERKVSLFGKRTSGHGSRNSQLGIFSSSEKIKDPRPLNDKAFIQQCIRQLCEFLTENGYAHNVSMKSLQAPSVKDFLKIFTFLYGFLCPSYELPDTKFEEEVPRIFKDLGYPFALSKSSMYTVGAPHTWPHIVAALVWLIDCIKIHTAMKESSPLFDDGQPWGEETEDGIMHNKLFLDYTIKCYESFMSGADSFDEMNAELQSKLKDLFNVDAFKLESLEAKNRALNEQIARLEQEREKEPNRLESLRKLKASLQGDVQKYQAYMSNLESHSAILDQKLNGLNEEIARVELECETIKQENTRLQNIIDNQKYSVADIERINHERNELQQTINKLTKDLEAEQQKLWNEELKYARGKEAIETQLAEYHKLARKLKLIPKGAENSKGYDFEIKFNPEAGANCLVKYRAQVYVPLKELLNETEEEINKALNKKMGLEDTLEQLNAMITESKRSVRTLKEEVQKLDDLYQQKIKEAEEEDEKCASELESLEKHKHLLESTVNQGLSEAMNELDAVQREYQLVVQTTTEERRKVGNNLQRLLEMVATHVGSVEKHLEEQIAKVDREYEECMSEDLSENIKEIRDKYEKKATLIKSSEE
Description: FIG. 13A. Dissociation of Hec1 and Nek2 in INH1I-treated cells. HeLa cells were grown in log-phase and treated with 0.08% DMSO or with the indicated concentration of INH1 for 24 hours. Cells were harvested for immunoprecipitation with the anti-Hec1 antibody mAb 9G3. The immunoprecipitates were analyzed by western blot with either mAb 9G3 or anti-Nek2 antibodies. […] Fractions of lysates were taken for straight western blot with anti-Rad50 antibodies as a loading control.
as §1

Cc1ccc(-c2csc(NC(=O)c3ccccc3)n2)c(C)c1 [INH1]
chromosome segregation phenotype [1]: generated chromosome missegregations
Nek2 phosphorylation of Hec1 (S165) [2]: abolished; also recorded: undetectable
killing activity by colony formation [3]: significant higher killing activity
cells killed [4]: more than 50%
activity in killing dividing cells [5]: significant activity
cells killed [6]: < 5%
cell death by FACS analysis [7]: led to cell death
Nek2 co-precipitated with anti-Hec1 antibodies [8]: very little or no Nek2 protein
Nek2 co-precipitated with anti-Hec1 antibodies ([8]; listed as INH 1): Nek2 failed to be co-immunoprecipitated with Hec1

INH2
Nek2 phosphorylation of Hec1 (S165) [2]: abolished; also recorded: undetectable
activity in killing dividing cells [5]: significant activity

Reference: patent US8252520B2, “Methods and compounds for inhibiting Hec1 activity for the treatment of proliferative diseases” (Taivex Therapeutics Corporation, priority 2002, dated 2012)
